Data from ChEMBL document CHEMBL5465560, “Selectivity Literature for EUbOPEN Chemogenomic Library” (2024).
Each block holds one molecule with its values, some of them ahead of it.

How the values were obtained:
[1] = target: Ribosomal protein S6 kinase beta-1 (Homo sapiens, UniProt P23443); test: Selectivity interaction (Kinase panel (Z-LYTE Assay)) EUB0001632a RPS6KB1; conditions: at 10 µM
[2] = target: 5'-AMP-activated protein kinase catalytic subunit alpha-1 (Homo sapiens, UniProt Q13131); test: Selectivity interaction (Kinase panel (literature)) EUB0001199aCl PRKAA1; conditions: at 1 µM
[3] = target: RAC-alpha serine/threonine-protein kinase (Homo sapiens, UniProt P31749); test: Selectivity interaction (Upstate Kinase Profiler service (Millipore)) EUB0000056c AKT1; conditions: at 1 µM
[4] = target: Tyrosine-protein kinase ABL1 (Homo sapiens, UniProt P00519); conditions: at 10 µM
[5] = target: Tyrosine-protein kinase SYK (Homo sapiens, UniProt P43405); test: Selectivity interaction (ActivX KiNativ screen (kinase selectivity in THP-1 cell lysates)) EUB0000639a SYK; format: subcellular; conditions: lysate
[6] = target: Insulin-like growth factor 1 receptor (Homo sapiens, UniProt P08069); test: Selectivity interaction (Millipore kinase profiler) EUB0000124b IGF1R; conditions: at 10 µM
[7] = target: Cyclin-dependent kinase 3 (Homo sapiens) (UniProt Q00526); test: Selectivity interaction (KinomeScan (DiscoverX)) EUB0000045b CDK3
[8] = target: T1, Serine/threonine-protein kinase PLK4 (Homo sapiens) (UniProt O00444); test: Selectivity interaction (KinomeScan (DiscoverX)) EUB0000229b PLK4; conditions: at 10 µM
T1 sequence (whole entry): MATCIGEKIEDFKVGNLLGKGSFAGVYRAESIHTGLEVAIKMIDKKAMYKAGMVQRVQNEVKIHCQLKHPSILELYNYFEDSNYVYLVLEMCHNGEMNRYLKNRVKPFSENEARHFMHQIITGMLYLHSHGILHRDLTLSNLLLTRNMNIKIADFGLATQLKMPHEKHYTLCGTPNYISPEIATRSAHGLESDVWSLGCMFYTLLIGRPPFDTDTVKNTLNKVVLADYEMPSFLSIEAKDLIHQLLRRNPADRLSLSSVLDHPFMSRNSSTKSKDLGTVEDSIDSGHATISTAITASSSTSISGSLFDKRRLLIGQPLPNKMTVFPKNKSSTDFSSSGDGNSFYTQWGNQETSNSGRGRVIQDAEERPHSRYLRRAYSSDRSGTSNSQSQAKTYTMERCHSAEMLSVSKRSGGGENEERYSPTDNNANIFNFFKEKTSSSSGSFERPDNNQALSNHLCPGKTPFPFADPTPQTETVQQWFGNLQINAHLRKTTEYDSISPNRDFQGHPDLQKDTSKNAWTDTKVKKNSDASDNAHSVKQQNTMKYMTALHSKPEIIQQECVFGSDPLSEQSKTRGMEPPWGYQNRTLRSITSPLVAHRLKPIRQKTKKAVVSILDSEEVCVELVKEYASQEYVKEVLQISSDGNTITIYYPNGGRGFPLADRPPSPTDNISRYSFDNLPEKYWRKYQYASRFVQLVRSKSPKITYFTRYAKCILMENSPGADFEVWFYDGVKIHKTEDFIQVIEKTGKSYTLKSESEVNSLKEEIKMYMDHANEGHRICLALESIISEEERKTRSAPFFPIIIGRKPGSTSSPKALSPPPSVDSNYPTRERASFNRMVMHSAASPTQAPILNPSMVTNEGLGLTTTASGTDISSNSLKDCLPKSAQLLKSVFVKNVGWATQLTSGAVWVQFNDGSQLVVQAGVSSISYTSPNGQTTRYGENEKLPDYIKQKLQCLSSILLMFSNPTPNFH

[9] = target: RAC-gamma serine/threonine-protein kinase (Homo sapiens, UniProt Q9Y243); test: Selectivity interaction (KinomeScan (DiscoverX)) EUB0000092b AKT3; conditions: at 10 µM
[10] = target: LIM domain kinase 2 (Homo sapiens) (UniProt P53671); test: Selectivity interaction (KinomeScan (DiscoverX)) EUB0000618a LIMK2; conditions: at 10 µM
[11] = target: T2, Tyrosine-protein kinase ZAP-70 (Homo sapiens) (UniProt P43403); test: Selectivity interaction (KinomeScan (DiscoverX)) EUB0001619a ZAP70; conditions: at 1 µM
T2 sequence (whole entry): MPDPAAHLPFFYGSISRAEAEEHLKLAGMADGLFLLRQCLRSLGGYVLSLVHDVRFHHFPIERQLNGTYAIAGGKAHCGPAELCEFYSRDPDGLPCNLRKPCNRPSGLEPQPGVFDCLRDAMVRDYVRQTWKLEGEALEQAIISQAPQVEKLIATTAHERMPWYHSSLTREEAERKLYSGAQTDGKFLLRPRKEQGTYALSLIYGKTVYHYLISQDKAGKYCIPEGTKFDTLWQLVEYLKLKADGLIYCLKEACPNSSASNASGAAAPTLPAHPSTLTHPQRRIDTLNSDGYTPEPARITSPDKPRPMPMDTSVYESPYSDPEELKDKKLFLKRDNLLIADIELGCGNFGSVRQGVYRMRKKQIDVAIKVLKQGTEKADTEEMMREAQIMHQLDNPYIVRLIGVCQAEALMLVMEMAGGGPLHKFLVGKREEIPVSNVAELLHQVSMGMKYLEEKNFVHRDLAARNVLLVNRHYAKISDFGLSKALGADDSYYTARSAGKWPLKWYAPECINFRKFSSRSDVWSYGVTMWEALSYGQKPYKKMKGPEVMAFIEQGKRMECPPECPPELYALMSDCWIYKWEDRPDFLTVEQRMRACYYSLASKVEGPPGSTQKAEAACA

Sequence of Cyclin-dependent kinase 3 (Homo sapiens) (Q00526 whole entry, looked up): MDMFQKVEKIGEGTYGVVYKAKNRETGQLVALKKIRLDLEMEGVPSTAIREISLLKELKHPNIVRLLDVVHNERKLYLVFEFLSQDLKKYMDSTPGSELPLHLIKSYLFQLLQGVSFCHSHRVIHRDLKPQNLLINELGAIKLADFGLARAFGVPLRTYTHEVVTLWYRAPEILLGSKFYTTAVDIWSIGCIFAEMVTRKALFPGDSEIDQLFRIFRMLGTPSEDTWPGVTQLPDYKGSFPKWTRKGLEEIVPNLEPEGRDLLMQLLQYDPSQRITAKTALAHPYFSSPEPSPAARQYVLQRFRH
Sequence of Insulin-like growth factor 1 receptor (P08069 31-736 limits assumed): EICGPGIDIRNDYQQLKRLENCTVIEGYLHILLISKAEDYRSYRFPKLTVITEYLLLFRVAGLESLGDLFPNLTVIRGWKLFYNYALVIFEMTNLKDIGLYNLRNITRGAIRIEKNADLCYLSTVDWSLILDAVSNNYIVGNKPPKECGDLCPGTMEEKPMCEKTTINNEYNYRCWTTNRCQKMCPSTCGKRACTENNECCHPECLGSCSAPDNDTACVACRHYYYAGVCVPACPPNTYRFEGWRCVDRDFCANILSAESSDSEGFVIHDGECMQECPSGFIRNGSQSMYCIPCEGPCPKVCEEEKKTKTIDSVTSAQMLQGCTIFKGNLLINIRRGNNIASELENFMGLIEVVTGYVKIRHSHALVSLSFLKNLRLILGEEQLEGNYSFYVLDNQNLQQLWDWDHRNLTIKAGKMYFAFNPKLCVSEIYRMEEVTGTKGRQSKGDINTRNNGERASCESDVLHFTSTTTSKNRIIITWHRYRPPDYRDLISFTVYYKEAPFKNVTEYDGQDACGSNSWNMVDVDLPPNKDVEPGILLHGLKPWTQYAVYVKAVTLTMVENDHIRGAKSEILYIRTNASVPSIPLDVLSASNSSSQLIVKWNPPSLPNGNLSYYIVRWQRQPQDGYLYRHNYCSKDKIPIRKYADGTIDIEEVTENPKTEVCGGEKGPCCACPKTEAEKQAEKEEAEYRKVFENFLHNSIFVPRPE
Sequence of Insulin-like growth factor 1 receptor (P08069 741-1367 limits assumed): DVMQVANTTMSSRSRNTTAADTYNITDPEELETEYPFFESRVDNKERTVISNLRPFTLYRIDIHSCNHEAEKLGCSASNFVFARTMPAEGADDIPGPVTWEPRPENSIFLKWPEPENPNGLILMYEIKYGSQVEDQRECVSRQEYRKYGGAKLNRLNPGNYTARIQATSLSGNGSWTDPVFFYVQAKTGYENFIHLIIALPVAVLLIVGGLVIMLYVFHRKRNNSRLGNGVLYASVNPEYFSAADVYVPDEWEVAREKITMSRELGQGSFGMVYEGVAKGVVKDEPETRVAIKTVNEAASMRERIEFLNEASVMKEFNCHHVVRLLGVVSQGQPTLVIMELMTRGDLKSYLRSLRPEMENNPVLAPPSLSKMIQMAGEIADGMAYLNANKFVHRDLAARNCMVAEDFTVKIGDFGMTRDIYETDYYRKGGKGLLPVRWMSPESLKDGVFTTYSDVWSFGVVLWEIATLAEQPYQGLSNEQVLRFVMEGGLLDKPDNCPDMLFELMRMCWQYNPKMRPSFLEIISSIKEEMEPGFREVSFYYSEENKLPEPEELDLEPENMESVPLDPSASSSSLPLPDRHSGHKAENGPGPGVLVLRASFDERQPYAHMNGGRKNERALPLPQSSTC
Sequence of RAC-alpha serine/threonine-protein kinase (P31749 whole entry): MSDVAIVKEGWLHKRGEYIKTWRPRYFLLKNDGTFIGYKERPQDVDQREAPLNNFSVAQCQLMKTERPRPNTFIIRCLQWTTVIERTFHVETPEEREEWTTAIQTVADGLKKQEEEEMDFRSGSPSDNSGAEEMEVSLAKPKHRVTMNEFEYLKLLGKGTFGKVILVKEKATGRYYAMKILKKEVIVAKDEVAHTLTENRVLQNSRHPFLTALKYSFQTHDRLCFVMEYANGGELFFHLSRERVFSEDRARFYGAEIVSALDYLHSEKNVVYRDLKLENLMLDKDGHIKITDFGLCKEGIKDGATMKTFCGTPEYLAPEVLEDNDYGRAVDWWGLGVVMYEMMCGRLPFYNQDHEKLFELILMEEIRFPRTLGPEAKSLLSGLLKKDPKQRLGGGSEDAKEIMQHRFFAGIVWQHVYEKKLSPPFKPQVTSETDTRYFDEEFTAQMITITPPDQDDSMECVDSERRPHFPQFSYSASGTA
Sequence of LIM domain kinase 2 (Homo sapiens) (P53671 whole entry, looked up, the tested form may be a part): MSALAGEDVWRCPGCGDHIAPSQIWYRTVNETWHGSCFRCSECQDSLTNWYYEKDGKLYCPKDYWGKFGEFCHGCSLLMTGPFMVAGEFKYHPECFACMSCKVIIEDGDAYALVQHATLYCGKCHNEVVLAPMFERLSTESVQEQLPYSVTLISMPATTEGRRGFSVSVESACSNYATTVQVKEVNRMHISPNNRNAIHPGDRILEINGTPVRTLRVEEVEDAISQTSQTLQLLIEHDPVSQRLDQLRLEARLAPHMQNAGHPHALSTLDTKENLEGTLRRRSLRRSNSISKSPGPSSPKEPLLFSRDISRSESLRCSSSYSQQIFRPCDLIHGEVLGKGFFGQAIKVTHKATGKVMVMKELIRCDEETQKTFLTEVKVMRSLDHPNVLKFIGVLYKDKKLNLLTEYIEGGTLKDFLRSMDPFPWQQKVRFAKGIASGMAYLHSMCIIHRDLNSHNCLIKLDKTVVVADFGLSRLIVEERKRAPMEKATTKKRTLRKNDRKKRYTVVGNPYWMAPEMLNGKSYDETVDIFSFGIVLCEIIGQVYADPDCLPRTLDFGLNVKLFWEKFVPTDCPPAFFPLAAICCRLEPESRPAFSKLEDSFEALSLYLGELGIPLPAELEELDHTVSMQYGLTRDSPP
Sequence of Ribosomal protein S6 kinase beta-1 (P23443 whole entry, looked up): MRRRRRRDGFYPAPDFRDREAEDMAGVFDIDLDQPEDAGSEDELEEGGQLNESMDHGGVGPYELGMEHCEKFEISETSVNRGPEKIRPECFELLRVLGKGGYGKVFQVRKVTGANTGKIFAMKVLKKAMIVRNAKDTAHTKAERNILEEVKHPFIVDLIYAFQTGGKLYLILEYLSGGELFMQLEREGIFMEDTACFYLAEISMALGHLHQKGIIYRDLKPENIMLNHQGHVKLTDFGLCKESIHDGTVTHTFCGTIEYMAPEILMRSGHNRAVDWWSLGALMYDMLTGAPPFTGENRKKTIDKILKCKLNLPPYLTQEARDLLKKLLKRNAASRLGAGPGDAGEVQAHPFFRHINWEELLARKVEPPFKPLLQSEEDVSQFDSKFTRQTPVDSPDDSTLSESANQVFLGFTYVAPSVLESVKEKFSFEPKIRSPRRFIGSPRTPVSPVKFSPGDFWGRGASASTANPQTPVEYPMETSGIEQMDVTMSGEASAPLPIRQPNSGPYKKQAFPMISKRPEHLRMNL
Sequence of 5'-AMP-activated protein kinase catalytic subunit alpha-1 (Q13131 whole entry, looked up): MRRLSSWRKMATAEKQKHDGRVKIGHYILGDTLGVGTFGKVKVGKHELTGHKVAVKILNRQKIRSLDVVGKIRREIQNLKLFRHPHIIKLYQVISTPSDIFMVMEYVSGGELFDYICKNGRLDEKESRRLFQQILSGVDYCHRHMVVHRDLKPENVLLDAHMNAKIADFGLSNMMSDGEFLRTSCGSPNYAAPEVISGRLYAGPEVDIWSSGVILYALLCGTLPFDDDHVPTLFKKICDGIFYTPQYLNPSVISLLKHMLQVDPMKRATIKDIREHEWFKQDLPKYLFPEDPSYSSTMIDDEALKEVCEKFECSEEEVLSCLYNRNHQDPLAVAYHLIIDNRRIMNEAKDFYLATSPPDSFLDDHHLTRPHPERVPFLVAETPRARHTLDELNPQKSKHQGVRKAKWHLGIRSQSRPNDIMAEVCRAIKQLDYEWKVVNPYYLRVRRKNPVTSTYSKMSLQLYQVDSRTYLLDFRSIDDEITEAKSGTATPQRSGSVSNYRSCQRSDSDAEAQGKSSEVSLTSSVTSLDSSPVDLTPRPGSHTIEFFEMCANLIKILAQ
Sequence of RAC-gamma serine/threonine-protein kinase (Q9Y243 whole entry, the tested form may be a part): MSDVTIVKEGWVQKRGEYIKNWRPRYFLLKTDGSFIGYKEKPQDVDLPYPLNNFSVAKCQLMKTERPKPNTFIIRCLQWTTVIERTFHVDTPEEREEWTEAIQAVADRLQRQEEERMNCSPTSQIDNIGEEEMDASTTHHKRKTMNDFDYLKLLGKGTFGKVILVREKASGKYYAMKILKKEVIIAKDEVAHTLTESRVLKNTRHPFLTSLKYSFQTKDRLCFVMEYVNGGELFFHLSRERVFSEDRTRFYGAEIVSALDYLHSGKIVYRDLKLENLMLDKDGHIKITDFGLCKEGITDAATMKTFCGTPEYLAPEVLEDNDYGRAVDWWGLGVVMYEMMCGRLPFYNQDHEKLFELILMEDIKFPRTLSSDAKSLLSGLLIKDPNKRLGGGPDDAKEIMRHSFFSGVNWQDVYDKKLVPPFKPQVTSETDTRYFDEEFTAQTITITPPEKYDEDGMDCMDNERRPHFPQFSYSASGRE

- % of control [1]: 2.46%
Compound: Cn1cc(-n2cnc3c(NCc4nc5cc(Cl)c(Cl)cc5[nH]4)nc(N4CCOCC4)nc32)cn1

- % of inhibition [2]: 3%
Compound: CN1Cc2nccc(-c3cn(C)nc3-c3ccc(F)cc3)c2C1=O

- % of inhibition [3]: -3%
Compound: Cc1ccc(-c2ccc3c(ccc4sc5c(c43)NC[C@@H](C)NC5=O)n2)cn1

- % of inhibition ([5]; at 0.01 µM): 3.2%
- % of inhibition ([5]; at 0.04 µM): 14.7%
- % of inhibition ([5]; at 0.2 µM): 7.1%
- % of inhibition ([5]; at 1 µM): 16.1%
- % of inhibition ([5]; at 5 µM): 2.5%
Compound: CC[C@@H]1[C@H](F)C(=O)N[C@@H]1COc1nccc2cc(C(N)=O)c(OC)cc12 [ZIMLOVISERTIB]

- % of control [6]: 95%
Compound: CC(=O)Nc1cccc(-n2c(=O)n(C3CC3)c(=O)c3c(Nc4ccc(I)cc4F)n(C)c(=O)c(C)c32)c1

The next lines start with the molecule.

Compound: CCN(CC)CCCCNc1ncc2cc(-c3cc(OC)cc(OC)c3)c(NC(=O)NC(C)(C)C)nc2n1
- % of control [4]: 100%

Compound: C=CC(=O)Nc1cc(-n2c(=O)ccc3cnc4ccc(-c5ccc(NS(C)(=O)=O)cc5)cc4c32)ccc1C
- % of control ([7]; at 1 µM): 100%
- % of control ([7]; at 10 µM): 100%

Compound: COc1cc(N(C)c2ccnc3ccc(C(F)(F)F)cc23)cc(OC)c1OC
- % binding [8]: 99%

Compound: CCC(=O)N1CCN(c2ccc(-n3c(=O)ccc4cnc5ccc(-c6cnc7ccccc7c6)cc5c43)cc2C(F)(F)F)CC1
- % of control [9]: 77%

Compound: O[C@H]1CC[C@H](Nc2ncc3nc(Nc4c(F)cc(F)cc4F)n([C@H]4CCOC4)c3n2)CC1
- % of control [10]: 29%

Compound: N#Cc1cccc(-c2c[nH]c3ncnc(N4CCOCC4)c23)c1
- % of control [11]: 96%
